Results as given in US12448655B2, “Antibiotic susceptibility of microorganisms and related methods and systems” (CALIFORNIA INSTITUTE OF TECHNOLOGY, priority 2017, dated 2025).

Columns and labels:
Format in all cases: cell-based
Escherichia coli = test: Minimum inhibitory concentrations (MICs) of Enterobacteriaceae clinical isolates
From the text: (§1) Clinical isolates referenced, minimum inhibitory concentrations (MICs), and categorical susceptibility based on CLSI breakpoints The below list of organisms are examples of clinically-relevant susceptible and resistant Enterobacteriaceae clinical isolates. Minimum inhibitory concentrations (MICs) are provided in μg/mL for the antibiotics listed.
(§2) Isolates, growth conditions, and antibiotic exposure conditions. 25 de-identified clinical isolates were obtained from the UCLA Clinical Microbiology Laboratory (CML) and the CDC's Enterobacteriaceae Carbapenem Breakpoint panel. In the case of isolates obtained from the UCLA CML, MICs were determined as described previously. Genotypic testing of the two Ec and two Kp isolates selected for their lack of known β-lactamase genes was performed by UCLA CML using a previously published assay and separately at the Keck School of Medicine of USC using the FDA-approved Cepheid Xpert® Carba-R test. Whole genome sequencing of the single Ebs isolate selected for its lack of known resistance genes was performed by the CDC [3]. All isolates were stored as glycerol stocks at −80° C. Glycerol stocks were streaked onto Trypticase Soy Agar with 5% sheep's blood (Becton Dickinson, Franklin Lakes, NJ, USA) and grown overnight at 37° C. Prior to experiments, a small clump of cells was resuspended in 2 mL Brain Heart Infusion Broth (BHI, Becton Dickinson) at 37° C.+5% CO2 with 500 rpm shaking for 2 to 4 h until visibly turbid. OD600 of the cultures was then measured, and working cultures prepared at an OD600 of 0.01-0.07 and grown for 50-145 min at 37° C.+5% CO2 with 500 rpm. Working cultures were then diluted 10× into control and treated aliquots for antibiotic exposure. For validation experiments, antibiotic exposure was performed in 100 μL volumes consisting of 80 μL Mueller Hinton II Broth (Becton Dickinson), 5 μL nuclease-free H2O (NF—H2O), 5 μL 20× antibiotic stock solution, and 10 μL of working culture. In control aliquots, antibiotic stock solution was replaced with NF—H2O. For filtration experiments, antibiotic exposure was performed in 100 μL volumes consisting of 65 μL Mueller Hinton II Broth (Becton Dickinson), 21 μL nuclease-free H2O (NF—H2O), 4 μL 25× antibiotic stock solution, and 10 μL of working culture. In control aliquots, antibiotic stock solution was replaced with NF—H2O.

Klebsiella pneumoniae = test: as above
From the text: as §1, §2

Neisseria gonorrhoeae [1] = test: AST by inaccessible DNA without enhancing treatment, static incubation time course, qPCR (Example 7); settings: penicillin-susceptible isolate ng_15; 1 μg/mL PEN; MHB; DNaseI secondary step
Description: Antibiotic susceptibility test was performed with methods herein described relying on b-lactam-induced cellular lysis, or cell-wall damage, to generate differences in DNA accessibility between the unexposed and exposed tubes. No enhancing treatment is performed in this example. In this example DNaseI is used to degrade the DNA made accessible by beta-lactam induced damage over incubation times larger than what is tested in examples 1-6 (incubation times >30 minutes)
The layout of this experiment is illustrated in FIG. 14 according to which a penicillin-susceptible isolate is incubated with penicillin for 15 min-6 hours. At each time point, DNaseI will be added to degrade the accessible DNA, then the DNaseI will be inactivated simultaneously with the lysis of the remaining cells. The quantified nucleic acids represent those from the cells with inaccessible DNA throughout the antibiotic exposure and incubation with DNaseI.
The treated and untreated samples were incubated at 37° C. for 15 minutes, Ihr, 2 hr, 3 hr, 4 hr, 5 hr, 6 hr. At each time point, bring the culture tubes into the BSC and incubate an aliquot of the contents with DNaseI to degrade the accessible DNA. • 8. secondary incubation of treated and untreated samples to degrade accessible DNA […]

Neisseria gonorrhoeae [2] = test: Two-step nuc-aAST on Ng clinical urine samples and their isolates, TNP enhancer (Examples 35, 37); settings: antibiotic-resistant samples and isolates (Sample #3, #4); 1 μg/mL 30 min, then TNP 3-5 min, DNaseI
Description: Clinical sample nuc-aAST. Suspensions of clinical urine samples were prepared as described above. All suspensions were generated, and the ABX-exposure step initiated within 90 min of sample donation. The initial ABX-exposure was performed by incubating 50 μL control and treated samples at 37° C. in PCR tube strips on a BioRad C1000 Thermal Cycler. Treated samples consisted of […] of suspension and 1.25 μL aliquot of PEN or CRO (40 μg/mL). ABX were replaced with NF—H2O in control samples. After 30 min of incubation, samples were vortexed and quickly spun on a benchtop microcentrifuge (Labnet) at 2,000×g for 2-3 sec, and 2.7 μL TNP (100 mM) was added to each sample for the enhancement step. Samples were then immediately vortexed, spun on a benchtop microcentrifuge (Labnet) at 2,000×g for 2-3 sec, and incubated at 37° C. for 3-5 min. After the enhancement step, 20 μL from each sample was extracted by diluting 5× in QuickExtract DNA Extraction Solution (Lucigen) and heating for 6 min at 65° C. followed by 4 min at 98° C. on a BioRad C1000 Thermal Cycler. All sample handling following ABX exposure was performed using a multichannel pipette; qPCR and calculation of percentage accessibility were performed as previously described, with the modification that the qPCR mix included 2 μL of template per 10 μL PCR reaction instead of 1 μL template per 10 μL reaction. […]

Compound | Antibiotic MICs (Escherichia coli; isolate Ec_1) | Antibiotic MICs (Escherichia coli; isolate Ec_2) | Antibiotic MICs (Escherichia coli; isolate Ec_3) | Antibiotic MICs (Escherichia coli; isolate Ec_4) | Antibiotic MICs (Escherichia coli; isolate Ec_38) [µg/mL] | Antibiotic MICs (Escherichia coli; isolate Ec_39) [µg/mL] | Antibiotic MICs (Escherichia coli; isolate Ec_40) | Antibiotic MICs (Escherichia coli; isolate Ec_41) [µg/mL] | Antibiotic MICs (Klebsiella pneumoniae; isolate Kp_1) | Antibiotic MICs (Klebsiella pneumoniae; isolate Kp_2) | Antibiotic MICs (Klebsiella pneumoniae; isolate Kp_7) [µg/mL] | Antibiotic MICs (Klebsiella pneumoniae; isolate Kp_8) [µg/mL] | antibiotic exposure time needed for a detectable CT ratio without enhancer (Neisseria gonorrhoeae [1]) [h] | mean percentage accessibility of DNA (Neisseria gonorrhoeae [2]) [%]
CO/N=C(\C(=O)N[C@@H]1C(=O)N2C(C(=O)O)=C(CSc3nc(=O)c(=O)[nH]n3C)CS[C@H]12)c1csc(N)n1 [CRO, ceftriaxone] | <=1 μg/mL | <=1 μg/mL | <=1 μg/mL | <=1 μg/mL | >32 | >32 | >=64 μg/mL | >32 | <=1 μg/mL | <=1 μg/mL | >32 | >32 |  | 
penicillin |  |  |  |  |  |  |  |  |  |  |  |  | ≥ 3 | < 46
